# Reference: patent US20130085115A1, “COMBINATION THERAPY FOR LYMPHOMA” (Celgene Corporation, priority 2011, published 2013)
# Where two headings read alike, the source gives them in different places.
# Assays:
# CTCL cells = assay: Apoptosis by Annexin V-FITC flow cytometry in CTCL cell lines; type: cell-based, Human; conditions: Annexin V assay measured by flow cytometry; FIGS. 5A-5D
# Procedure: Human CTCL cell lines (Hut78, SeAx, and MyLa) were grown in RPMI 1640 medium supplemented with 10% heat-inactivated fetal bovine serume (FBS), glutamine (2 mM) and streptomycin (100 μg/ml) at 37° C., 5% CO2 and 95% humidity.
# Romidepsin was used in a concentration ranging from 0.25 nM to 10 μM. 5-azacitidine was used in a concentration ranging from 500 nM to 10 μM. After 24 to 72 hours of the combined drug treatment, the levels of apoptosis and necrosis were measured by flow cytometry with Annexin V-FITC detection kit.
# [1] = cited from earlier work
SMILES,apoptosis (CTCL cells) [%],"solubility ([1]; acetone, ethanol and methyl ketone)",solubility ([1]; dimethylsulfoxide (DMSO)),"solubility ([1]; ethanol/water (50/50), propylene glycol and polyethylene glycol)","solubility ([1]; water, water-saturated octanol, 5% dextrose in water, N-methyl-2-pyrrolidone, normal saline and 5% Tween 80 in water)"
"C/C=C1\NC(=O)[C@H]2CSSCC/C=C/[C@H](CC(=O)N[C@H](C(C)C)C(=O)N2)OC(=O)[C@H](C(C)C)NC1=O [romidepsin, (1S,4S,7Z,10S,16E,21R)-7-ethylidene-4,2′-bis(1-methylethyl)-2-oxa-12,13-dithia-5,8,20,23-tetrazabicyclo[8.7.6]tricos-16-ene-3,6,9,19,22-pentone]",18.8,,,,
"Nc1ncn([C@@H]2O[C@H](CO)[C@@H](O)[C@H]2O)c(=O)n1 [5-azacitidine, 4-amino-1-β-D-ribofuranozyl-s-triazin-2(1H)-one]",21.4,insoluble,soluble,slightly soluble,sparingly soluble
